How the values were obtained:
Assay type in all cases: in vivo
Aulacorthum solani [1] = experiment: Insecticidal effect (protective value), soybean pot test, Example 1; conditions: clothianidin 44.7 g/ha; flumioxazin none; day 6 after release
Protocol: (§1) The evaluation of the insecticidal effect was performed by determining the life and death of the insects at the time of the investigation and calculating the protective value according to the following equation; Protective Value (%)=100×(1−T/C) wherein the symbols have the following meanings;
(§2) C: The number of insects at the time of observation in an untreated section: and
(§3) T: The number of insects at the time of observation in a treated section.
(§4) Thereafter, the test pot was placed in a greenhouse.

Aulacorthum solani [2] = experiment: Insecticidal effect (protective value), soybean pot test, Example 3; conditions: day 7 after release
Protocol: as §1, §2, §3, §4

Spodoptera litura [3] = experiment: Insecticidal effect (protective value), corn pot test, Example 4; conditions: flumioxazin none, day 3 after release
Protocol: as §1, §2, §3
(§5) In addition, the clothianidin suspension was attached to the corn seeds in a similar manner except that it was used in an amount of 217.5 μL.
(§6) Thereafter, the test pot was placed in a greenhouse. On day 22 after corn sowing, 10 fourth-instar larvae of Spodoptera litura were released in the pot and the whole pot was then covered with a nylon cloth.
(§7) On day 3 after release of Spodoptera litura, the insecticidal effect was examined.

Spodoptera litura [4] = experiment: Insecticidal effect (protective value), corn pot test, Example 5; conditions: day 3 after release
Protocol: as §1, §2, §3, §5
The aqueous diluted solution of saflufenacil was prepared by dissolving a given amount of saflufenacil in acetone containing 2% (w/v) of Tween 20, and diluting this solution with water to an acetone concentration of 10% (v/v).
as §6, §7

Ipomoea hederacea [5] = experiment: Herbicidal effect, soybean Wagner pot test, Example 6; conditions: clothianidin 73 g/ha; flumioxazin none; day 11 after sowing; scale 0 to 100
From the text: (§8) A soil was packed in a 1/5000a Wagner pot. The above soybean seeds were sown in the Wagner pot at a rate of two seeds per pot, and the seeds of Ipomoea hederacea were sown in the pot at a rate of three seeds per pot.
(§9) On day 11 after sowing of the seeds of soybean and Ipomoea hederacea, the herbicidal effect and phytotoxicity were examined.

soybean = experiment: Phytotoxicity to soybean, Example 6; conditions: clothianidin 73 g/ha; flumioxazin none; day 11 after sowing
From the text: as §8, §9

Ipomoea hederacea [6] = experiment: Herbicidal effect, corn Wagner pot test, Example 7; conditions: day 11 after sowing, scale 0 to 100
Protocol: (§10) The plastic cup was shaken by the hand so as to attach the clothianidin suspension to the corn seeds.
(§11) A soil was packed in a 1/5000a Wagner pot. The above corn seeds. were sown in the Wagner pot at a rate of one seed per pot, and the seeds of Ipomoea hederacea were sown in the pot at a rate of three seeds per pot. […] The aqueous diluted solution of saflufenacil was prepared by dissolving a given amount of saflufenacil in acetone containing 2% (w/v) of Tween 20, and diluting this solution with water to an acetone concentration of 10% (v/v).
(§12) On day 11 after sowing of the seeds of corn and Ipomoea hederacea, the herbicidal effect and phytotoxicity were examined.

corn = experiment: Phytotoxicity to corn, Example 7; conditions: day 11 after sowing
Protocol: as §10, §11, §12

Ipomoea lacunosa [7] = experiment: Herbicidal activity, corn pot test, Example 59; conditions: pyraclostrobin none, twelve days after sowing
Protocol: In a glass container measuring 60 mm in inner diameter and 20 mm in height, 8 mg of a pyraclostrobin emulsifiable concentrate (emulsifiable concentrate containing 23.8% pyraclostrobin, manufactured by BASF under the trade name of Comet) and 25 corn seeds were placed. After capping a glass container, the pyraclostrobin emulsifiable concentrate was adhered to the corn seeds by shaking the glass container by hand. In the same manner, 22 mg of the pyraclostrobin emulsifiable concentrate was adhered to the corn seeds.
(§13) A plastic pot measuring 194 mm in inner diameter and 176 mm in height was filled with the soil. In this pot, 2 corn seeds were sown per 1 pot and 10 seeds of Ipomoea lacunosa were sown per 1 pot. On the day of sowing of the corn seeds, after sowing the corn seeds, a water diluted solution (24.5 mg of product/liter) of a flumioxazin granular wettable powder (granular wettable powder containing 51% flumioxazin, manufactured by Valent USA Corporation under the trade name of Valor SX), a water diluted solution (66.7 mg of product/liter) of a sulfentrazone granular wettable powder (granular wettable powder containing 75% sulfentrazone, manufactured by FMC Corporation under the trade name of Cover), a water diluted solution (15 mg/liter) of saflufenacil and a water diluted solution (100 mg/liter) of oxyfluorfen were uniformly sprayed over a surface of the soil in each amount described in Tables 22 to 25, using a sprayer. The water diluted solutions of saflufenacil and oxyfluorfen were prepared by dissolving each predetermined amount of saflufenacil and oxyfluorfen in acetone containing 2% (w/v) Tween 20 and diluting each solution with water so as to adjust the concentration of acetone to 10% by volume.
Twelve days after sowing the seeds of corn and Ipomoea lacunose, herbicidal activity was examined.

Ipomoea lacunosa [8] = experiment: Herbicidal activity, corn pot test, Example 76; conditions: metalaxyl-M none, ten days after sowing
Protocol: In a glass container measuring 60 mm in inner diameter and 20 mm in height, 15 mg of a metalaxyl-M emulsifiable concentrate (emulsifiable concentrate containing 33.3% metalaxyl-M, manufactured by Syngenta under the trade name of Apron XL) and 25 corn seeds were placed. After capping this glass container, the metalaxyl-M emulsifiable concentrate was adhered to the corn seeds by shaking the glass container by hand. In the same manner, 33 mg of the metalaxyl-M emulsifiable concentrate was adhered to the corn seeds.
as §13, with “sulfentrazone” for “sulfentrazone,”, “28” for “22”, “31,” for “25,”
Ten days after sowing the seeds of corn and Ipomoea lacunosa, herbicidal activity was examined.

Ipomoea hederacea [9] = experiment: Herbicidal activity, corn pot test, Example 16; conditions: azole seed treatment none, saflufenacil 30 g/ha, twelve days after sowing
Protocol: In a glass container measuring 60 mm in inner diameter and 20 mm in height, 8 μl of a prothioconazole emulsifiable concentrate (emulsifiable concentrate containing 25% prothioconazole, manufactured by Bayer Crop Science Inc. under the trade name of Proline) and 20 corn seeds were placed. The prothioconazole emulsifiable concentrate was adhered to the corn seeds by shaking this plastic cup by hand. In the same manner, 8 μl of a difenoconazole emulsifiable concentrate (emulsifiable concentrate containing 25% difenoconazole, manufactured by Syngenta under the trade name of Score) was adhered to 20 corn seeds. In the same manner, 50 mg of a tebuconazole suspension (suspension containing 20% tebuconazole, manufactured by Hokko Chemical Industry under the trade name of ONLY ONE Flowable) was adhered to 20 corn seeds.
A plastic pot measuring 194 mm in inner diameter and 176 mm in height was filled with the soil. In this pot, 3 corn seeds were sown per 1 pot and 10 seeds of Ipomoea hederacea were sown per 1 pot. […]

Aulacorthum solani [10] = experiment: Insecticidal effect (protective value), soybean pot test, Example 2; conditions: thiamethoxam 78.9 g/ha; flumioxazin none; day 6 after release
Protocol: as §1, §2, §3, §4

[11] = clothianidin 340 g/ha, saflufenacil none
[12] = clothianidin 605 g/ha, saflufenacil none
[13] = clothianidin none, saflufenacil 32 g/ha

## CN/C(=N\[N+](=O)[O-])NCc1cnc(Cl)s1 [Clothianidin, clothianidin]
Aulacorthum solani [1]
  Protective Value: 59.1%
Aulacorthum solani [2]; clothianidin 55.3 g/ha, sulfentrazone none
  Protective Value: 55.2%
Spodoptera litura [3]; clothianidin 553 g/ha
  Protective Value: 30%
Spodoptera litura [3]; clothianidin 984 g/ha
  Protective Value: 65%
Spodoptera litura [4]; clothianidin 272 g/ha, saflufenacil none
  Protective Value: 30%
Spodoptera litura [4]; clothianidin 496 g/ha, saflufenacil none
  Protective Value: 40%
Ipomoea hederacea [5]
  Evaluation of Effect on Weeds: 0
soybean
  Phytotoxicity to Soybean: No harm
Ipomoea hederacea [6]; [11]
  Evaluation of Effect on Weeds: 0
Ipomoea hederacea [6]; [12]
  Evaluation of Effect on Weeds: 0
corn; [11]
  Phytotoxicity to Corn: No harm
corn; [12]
  Phytotoxicity to Corn: No harm

## CCOc1cc(Oc2ccc(C(F)(F)F)cc2Cl)ccc1[N+](=O)[O-] [Oxyfluorfen, oxyfluorfen]
Ipomoea lacunosa [7]; oxyfluorfen 200 g/ha
  Herbicidal activity: 45
Ipomoea lacunosa [8]; oxyfluorfen 200 g/ha
  Herbicidal activity: 45

## CC(C)N(C)S(=O)(=O)NC(=O)c1cc(-n2c(=O)cc(C(F)(F)F)n(C)c2=O)c(F)cc1Cl [Saflufenacil, saflufenacil]
Spodoptera litura [4]; [13]
  Protective Value: 0%
Spodoptera litura [4]; clothianidin none, saflufenacil 125 g/ha
  Protective Value: 0%
Ipomoea hederacea [6]; [13]
  Evaluation of Effect on Weeds: 50
corn; [13]
  Phytotoxicity to Corn: No harm
Ipomoea hederacea [9]
  Herbicidal activity on Ipomoea hederacea: 88
Ipomoea lacunosa [7]; saflufenacil 30 g/ha
  Herbicidal activity: 45
Ipomoea lacunosa [8]; saflufenacil 30 g/ha
  Herbicidal activity: 45

## Cc1nn(-c2cc(NS(C)(=O)=O)c(Cl)cc2Cl)c(=O)n1C(F)F [Sulfentrazone, sulfentrazone]
Aulacorthum solani [2]; clothianidin none, sulfentrazone 200 g/ha
  Protective Value: 0%
Ipomoea lacunosa [7]; sulfentrazone 100 g/ha
  Herbicidal activity: 40
Ipomoea lacunosa [8]; sulfentrazone 100 g/ha
  Herbicidal activity: 40

## CN1COCN(Cc2cnc(Cl)s2)/C1=N\[N+](=O)[O-] [Thiamethoxam, thiamethoxam]
Aulacorthum solani [10]
  Protective Value: 86.9%

Source: patent US8859463B2, “Method for controlling noxious organisms” (Sumitomo Chemical Company, Limited, priority 2009, dated 2014)
